# Measurements: paper PMC5218480 (PLoS ONE, 2017)
# System: MV-4-11 cells
# Assay: Gene expression microarray analysis (Affymetrix PrimeView) and GSEA
# Assay type: cell-based, human
# Design: RFU PODN (11730768_x_at) / Fold change /veh PODN (11730768_x_at) / RFU LINC00158 (11744669_a_at) / Fold change /veh LINC00158 (11744669_a_at) / RFU DUSP10 (11751237_a_at) / Fold change /veh DUSP10 (11751237_a_at) / RFU ID3 (11757404_x_at) / Fold change /veh ID3 (11757404_x_at) / RFU PLEKHG5 (11737974_s_at) / Fold change /veh PLEKHG5 (11737974_s_at) / RFU LRRC4B (11730491_at) / Fold change /veh LRRC4B (11730491_at) / RFU GIMAP4 (11747438_a_at) / Fold change /veh GIMAP4 (11747438_a_at) / RFU KRT8 (11758183_x_at) / Fold change /veh KRT8 (11758183_x_at) / RFU CNN1 (11734310_a_at) / Fold change /veh CNN1 (11734310_a_at) / RFU VPS37D (11726825_at) / Fold change /veh VPS37D (11726825_at) / RFU C10orf10 (11716522_x_at) / Fold change /veh C10orf10 (11716522_x_at) / RFU KIR2DL2 /// KIR2DL4 /// KIR2DL5A /// KIR2DL5B /// KIR2DS1 /// KIR2DS2 /// KIR2DS3 /// KIR2DS4 /// KIR3DL3 /// KIR3DL3 /// KIR3DS1 (11738374_at) / Fold change /veh KIR2DL2 /// KIR2DL4 /// KIR2DL5A /// KIR2DL5B /// KIR2DS1 /// KIR2DS2 /// KIR2DS3 /// KIR2DS4 /// KIR3DL3 /// KIR3DL3 /// KIR3DS1 (11738374_at) / RFU C1QL1 (11718748_at) / Fold change /veh C1QL1 (11718748_at) / RFU TMPRSS4 (11747572_a_at) / Fold change /veh TMPRSS4 (11747572_a_at) / RFU HAMP (11756126_x_at) / Fold change /veh HAMP (11756126_x_at) / RFU RNFT2 (11725882_a_at) / Fold change /veh RNFT2 (11725882_a_at) / RFU NR4A2 (11747474_a_at) / Fold change /veh NR4A2 (11747474_a_at) / RFU ABCC12 (11746883_a_at) / Fold change /veh ABCC12 (11746883_a_at) / RFU TMEM136 (11760407_x_at) / Fold change /veh TMEM136 (11760407_x_at) / RFU CLDN22 /// WWC2 (11732394_at) / Fold change /veh CLDN22 /// WWC2 (11732394_at) / RFU HLA-DPB1 (11760878_x_at) / Fold change /veh HLA-DPB1 (11760878_x_at) / RFU SPINT1 (11716480_a_at) / Fold change /veh SPINT1 (11716480_a_at) / RFU GAP43 (11754022_s_at) / Fold change /veh GAP43 (11754022_s_at) / RFU A4GNT (11735810_at) / Fold change /veh A4GNT (11735810_at) / RFU PRB3 (11715151_x_at) / Fold change /veh PRB3 (11715151_x_at) / RFU TUBB4B (11761932_at) / Fold change /veh TUBB4B (11761932_at) / RFU CAPN14 (11732068_a_at) / Fold change /veh CAPN14 (11732068_a_at) / RFU TMCC2 (11721928_a_at) / Fold change /veh TMCC2 (11721928_a_at) / RFU IRGQ (11745062_a_at) / Fold change /veh IRGQ (11745062_a_at) / RFU FAM174B (11720279_a_at) / Fold change /veh FAM174B (11720279_a_at) / RFU TMPRSS4 (11748680_a_at) / Fold change /veh TMPRSS4 (11748680_a_at) / RFU FAM212B (11763350_a_at) / Fold change /veh FAM212B (11763350_a_at) / RFU PLEKHG5 (11743358_a_at) / Fold change /veh PLEKHG5 (11743358_a_at) / RFU ZSCAN30 (11745921_a_at) / Fold change /veh ZSCAN30 (11745921_a_at) / RFU CMKLR1 (11741424_a_at) / Fold change /veh CMKLR1 (11741424_a_at) / RFU LOC101060620 /// MAPK8IP1 (11723275_at) / Fold change /veh LOC101060620 /// MAPK8IP1 (11723275_at) / RFU SPTSSB (11747773_x_at) / Fold change /veh SPTSSB (11747773_x_at) / RFU PRSS12 (11739890_at) / Fold change /veh PRSS12 (11739890_at) / RFU BIN1 (11741810_x_at) / Fold change /veh BIN1 (11741810_x_at) / RFU WNT11 (11732464_a_at) / Fold change /veh WNT11 (11732464_a_at) / RFU C10orf10 (11716521_a_at) / Fold change /veh C10orf10 (11716521_a_at) / RFU C5orf56 (11738089_at) / Fold change /veh C5orf56 (11738089_at) / RFU CYB561 (11721691_x_at) / Fold change /veh CYB561 (11721691_x_at) / RFU ANKRD19P (11752326_a_at) / Fold change /veh ANKRD19P (11752326_a_at) / RFU OR2T12 /// OR2T33 /// OR2T8 (11738714_s_at) / Fold change /veh OR2T12 /// OR2T33 /// OR2T8 (11738714_s_at) / RFU VCAN (11748164_a_at) / Fold change /veh VCAN (11748164_a_at) / RFU JSRP1 (11732532_at) / Fold change /veh JSRP1 (11732532_at) / RFU KRTAP10-11 (11738290_x_at) / Fold change /veh KRTAP10-11 (11738290_x_at) / RFU MYO3A (11730013_a_at) / Fold change /veh MYO3A (11730013_a_at) / RFU EBF3 (11725865_a_at) / Fold change /veh EBF3 (11725865_a_at) / RFU CAMK2N1 (11719241_x_at) / Fold change /veh CAMK2N1 (11719241_x_at) / RFU C5orf56 (11738088_a_at) / Fold change /veh C5orf56 (11738088_a_at) / RFU OLFML3 (11715873_a_at) / Fold change /veh OLFML3 (11715873_a_at) / RFU LOC100653217 /// NTM (11731650_a_at) / Fold change /veh LOC100653217 /// NTM (11731650_a_at) / RFU MAPK11 (11762145_a_at) / Fold change /veh MAPK11 (11762145_a_at) / RFU FIZ1 (11724087_x_at) / Fold change /veh FIZ1 (11724087_x_at) / RFU OASL (11726364_x_at) / Fold change /veh OASL (11726364_x_at) / RFU SOX15 (11748057_x_at) / Fold change /veh SOX15 (11748057_x_at) / RFU CD79A (11719716_a_at) / Fold change /veh CD79A (11719716_a_at) / RFU HIST1H1D (11736915_at) / Fold change /veh HIST1H1D (11736915_at) / RFU CASKIN2 (11723855_a_at) / Fold change /veh CASKIN2 (11723855_a_at) / RFU LOC730098 (11760151_x_at) / Fold change /veh LOC730098 (11760151_x_at) / RFU OR4N2 (11742367_at) / Fold change /veh OR4N2 (11742367_at) / RFU PRRT2 (11749266_a_at) / Fold change /veh PRRT2 (11749266_a_at) / RFU SNX32 (11753110_a_at) / Fold change /veh SNX32 (11753110_a_at) / RFU CDHR5 (11726645_a_at) / Fold change /veh CDHR5 (11726645_a_at) / RFU RCAN1 (11760418_a_at) / Fold change /veh RCAN1 (11760418_a_at) / RFU FAM167A (11723789_a_at) / Fold change /veh FAM167A (11723789_a_at) / RFU FAM26E (11764081_at) / Fold change /veh FAM26E (11764081_at) / RFU ISYNA1 (11749810_s_at) / Fold change /veh ISYNA1 (11749810_s_at) / RFU ACY1 (11761880_at) / Fold change /veh ACY1 (11761880_at) / RFU 11764098_at / Fold change /veh 11764098_at / RFU SAMD14 (11745864_x_at) / Fold change /veh SAMD14 (11745864_x_at) / RFU NPB (11741838_a_at) / Fold change /veh NPB (11741838_a_at) / RFU TMPRSS6 (11731388_a_at) / Fold change /veh TMPRSS6 (11731388_a_at) / RFU KRTAP10-2 (11738614_at) / Fold change /veh KRTAP10-2 (11738614_at) / RFU ARHGAP8 /// PRR5-ARHGAP8 (11727945_x_at) / Fold change /veh ARHGAP8 /// PRR5-ARHGAP8 (11727945_x_at) / RFU KRTAP5-7 /// NADSYN1 (11734609_at) / Fold change /veh KRTAP5-7 /// NADSYN1 (11734609_at) / RFU RASL12 (11751679_a_at) / Fold change /veh RASL12 (11751679_a_at) / RFU CDKN2B (11736163_a_at) / Fold change /veh CDKN2B (11736163_a_at) / RFU PRF1 (11729649_at) / Fold change /veh PRF1 (11729649_at) / RFU, ZNF638 /// ZNF638-IT1 / Fold change vs veh, ZNF638 /// ZNF638-IT1 / RFU, PANK3 / Fold change vs veh, PANK3 / RFU, SH3YL1 / Fold change vs veh, SH3YL1 / RFU, ZEB2 / Fold change vs veh, ZEB2 / RFU, NRIP1 / Fold change vs veh, NRIP1 / RFU, PTTG1IP / Fold change vs veh, PTTG1IP / RFU, CAPN2 / Fold change vs veh, CAPN2 / RFU, MED14 / Fold change vs veh, MED14 / RFU, SNORA58 / Fold change vs veh, SNORA58 / RFU, C1orf63 / Fold change vs veh, C1orf63 / RFU, LRRFIP1 / Fold change vs veh, LRRFIP1 / RFU, NDUFAF7 / Fold change vs veh, NDUFAF7 / RFU, SLC12A2 / Fold change vs veh, SLC12A2 / RFU, IBTK / Fold change vs veh, IBTK / RFU, ESF1 / Fold change vs veh, ESF1 / Fold change vs veh, TMEM50B / RFU, TAOK1 / Fold change vs veh, TAOK1 / RFU, ACBD3 / Fold change vs veh, ACBD3 / RFU, TMA16 / Fold change vs veh, TMA16 / RFU, RWDD3 / Fold change vs veh, RWDD3 / RFU, BCAT1 / Fold change vs veh, BCAT1 / RFU, EDEM3 / Fold change vs veh, EDEM3 / RFU, TMEM33 / Fold change vs veh, TMEM33 / RFU, WDR75 / Fold change vs veh, WDR75 / RFU, AHCTF1 / Fold change vs veh, AHCTF1 / RFU, TFRC / Fold change vs veh, TFRC / RFU, ZDHHC17 / Fold change vs veh, ZDHHC17 / RFU, NOM1 / Fold change vs veh, NOM1 / RFU, ARL8B / Fold change vs veh, ARL8B / RFU, ZBTB11 / Fold change vs veh, ZBTB11 / RFU, TAMM41 / Fold change vs veh, TAMM41 / RFU, KIAA1704 /// LOC100996395 / Fold change vs veh, KIAA1704 /// LOC100996395 / RFU, ING1 / Fold change vs veh, ING1 / RFU, TRMT61B / Fold change vs veh, TRMT61B / RFU, FUBP3 / Fold change vs veh, FUBP3 / RFU, TP53 / Fold change vs veh, TP53 / RFU, TNKS2 / Fold change vs veh, TNKS2 / RFU, ZFP14 / Fold change vs veh, ZFP14 / RFU, ACTR2 / Fold change vs veh, ACTR2 / RFU, PPP3R1 / Fold change vs veh, PPP3R1 / RFU, PIK3R1 / Fold change vs veh, PIK3R1 / RFU, HNRNPA1 / Fold change vs veh, HNRNPA1 / RFU, RNF170 / Fold change vs veh, RNF170 / RFU, ZNF28 / Fold change vs veh, ZNF28 / RFU, RNGTT / Fold change vs veh, RNGTT / RFU, OGT / Fold change vs veh, OGT / RFU, BRD1 / Fold change vs veh, BRD1 / RFU, MARS / Fold change vs veh, MARS / RFU, ZNF655 / Fold change vs veh, ZNF655 / RFU, FAHD1 / Fold change vs veh, FAHD1 / RFU, BDP1 / Fold change vs veh, BDP1 / RFU, LRRCC1 / Fold change vs veh, LRRCC1 / RFU, ARID1A / Fold change vs veh, ARID1A / RFU, ZNF146 / Fold change vs veh, ZNF146 / RFU, ZNF330 / Fold change vs veh, ZNF330 / RFU, GPN3 / Fold change vs veh, GPN3 / RFU, C9orf123 / Fold change vs veh, C9orf123 / RFU, N4BP2L2 / Fold change vs veh, N4BP2L2 / RFU, ARFIP1 / Fold change vs veh, ARFIP1 / RFU, FAM179B / Fold change vs veh, FAM179B / RFU, BCL10 / Fold change vs veh, BCL10 / RFU, UHRF1BP1L / Fold change vs veh, UHRF1BP1L / RFU, BET1 / Fold change vs veh, BET1 / RFU, CNOT2 / Fold change vs veh, CNOT2 / RFU, ZNF268 / Fold change vs veh, ZNF268 / Fold change vs veh, ZNF507 / RFU, DGCR2 / Fold change vs veh, DGCR2 / RFU, WDSUB1 / Fold change vs veh, WDSUB1 / Fold change vs veh, HSP90B1 /// MIR3652 / RFU, ADSS / Fold change vs veh, ADSS / RFU, GK / Fold change vs veh, GK / RFU, ZNF148 / Fold change vs veh, ZNF148 / RFU, TAF9 / Fold change vs veh, TAF9 / RFU, SLC1A5 / Fold change vs veh, SLC1A5 / RFU, SLMO2 / Fold change vs veh, SLMO2 / RFU, ABCC4 / Fold change vs veh, ABCC4 / RFU, LOC101060439 /// RAP1B / Fold change vs veh, LOC101060439 /// RAP1B / RFU, RFX7 / Fold change vs veh, RFX7 / RFU, GTPBP10 / Fold change vs veh, GTPBP10 / RFU, CNEP1R1 / Fold change vs veh, CNEP1R1 / RFU, BIVM-ERCC5 /// ERCC5 / Fold change vs veh, BIVM-ERCC5 /// ERCC5 / RFU, ILF3 / Fold change vs veh, ILF3 / RFU 11762660_at / Fold change /veh 11762660_at / RFU VCAN (11757783_s_at) / Fold change /veh VCAN (11757783_s_at) / RFU DDX43 (11728927_at) / Fold change /veh DDX43 (11728927_at) / RFU KRT8 (11758188_x_at) / Fold change /veh KRT8 (11758188_x_at) / RFU NKD1 (11759106_at) / Fold change /veh NKD1 (11759106_at) / RFU SRD5A1 (11742802_a_at) / Fold change /veh SRD5A1 (11742802_a_at) / RFU TPSAB1 /// TPSB2 (11721975_s_at) / Fold change /veh TPSAB1 /// TPSB2 (11721975_s_at) / RFU GSTM3 (11746129_a_at) / Fold change /veh GSTM3 (11746129_a_at) / RFU IL23R (11737362_x_at) / Fold change /veh IL23R (11737362_x_at) / RFU TMEM51 (11727254_a_at) / Fold change /veh TMEM51 (11727254_a_at) / RFU PIWIL2 (11732686_x_at) / Fold change /veh PIWIL2 (11732686_x_at) / RFU ORM1 (11744905_x_at) / Fold change /veh ORM1 (11744905_x_at) / RFU CCDC152 (11743942_at) / Fold change /veh CCDC152 (11743942_at) / RFU ECM1 (11717891_a_at) / Fold change /veh ECM1 (11717891_a_at) / RFU IL23R (11748794_a_at) / Fold change /veh IL23R (11748794_a_at) / RFU TNFAIP8L3 (11732012_x_at) / Fold change /veh TNFAIP8L3 (11732012_x_at) / RFU MBOAT4 (11741988_at) / Fold change /veh MBOAT4 (11741988_at) / RFU 11764193_at / Fold change /veh 11764193_at / RFU TMEM53 (11763286_at) / Fold change /veh TMEM53 (11763286_at) / RFU MAGEB2 (11727129_at) / Fold change /veh MAGEB2 (11727129_at) / RFU TMEM200A (11744735_a_at) / Fold change /veh TMEM200A (11744735_a_at) / RFU CCDC152 (11751479_a_at) / Fold change /veh CCDC152 (11751479_a_at) / RFU FAM211A (11726209_a_at) / Fold change /veh FAM211A (11726209_a_at) / RFU RGS16 (11746705_a_at) / Fold change /veh RGS16 (11746705_a_at) / RFU VCAN (11755009_s_at) / Fold change /veh VCAN (11755009_s_at) / RFU RHOB (11743442_s_at) / Fold change /veh RHOB (11743442_s_at) / RFU RGS16 (11720943_a_at) / Fold change /veh RGS16 (11720943_a_at) / RFU RGS16 (11720944_at) / Fold change /veh RGS16 (11720944_at) / RFU, VPS4B / Fold change vs veh, VPS4B / RFU, CREB1 / Fold change vs veh, CREB1 / RFU, DNAJC13 / Fold change vs veh, DNAJC13 / RFU, GNAQ / Fold change vs veh, GNAQ / RFU, CDK5R1 / Fold change vs veh, CDK5R1 / RFU, ZRANB3 / Fold change vs veh, ZRANB3 / RFU, CUL4A / Fold change vs veh, CUL4A / RFU, CCNY / Fold change vs veh, CCNY / RFU, UFL1 / Fold change vs veh, UFL1 / RFU, COG3 / Fold change vs veh, COG3 / RFU, DIAPH2 / Fold change vs veh, DIAPH2 / RFU, SKA2 / Fold change vs veh, SKA2 / RFU, AFF3 / Fold change vs veh, AFF3 / RFU, LMF1 / Fold change vs veh, LMF1 / RFU, IPO11 / Fold change vs veh, IPO11 / RFU, DFFB / Fold change vs veh, DFFB / RFU, FOXP1 / Fold change vs veh, FOXP1 / RFU, CARD8 / Fold change vs veh, CARD8 / RFU, STRN3 / Fold change vs veh, STRN3 / RFU, ADK / Fold change vs veh, ADK / RFU, RASSF2 / Fold change vs veh, RASSF2 / RFU, WIPF1 / Fold change vs veh, WIPF1 / RFU, LARP1B / Fold change vs veh, LARP1B / RFU, RASA1 / Fold change vs veh, RASA1 / RFU, RB1 / Fold change vs veh, RB1 / RFU, PPFIA1 / Fold change vs veh, PPFIA1 / RFU, MAT2A / Fold change vs veh, MAT2A / RFU, CCT5 / Fold change vs veh, CCT5 / RFU, WDR92 / Fold change vs veh, WDR92 / RFU, CUX1 / Fold change vs veh, CUX1 / RFU, TTC7A / Fold change vs veh, TTC7A / RFU, TMEM135 / Fold change vs veh, TMEM135 / RFU, DEPTOR / Fold change vs veh, DEPTOR / RFU, CPM / Fold change vs veh, CPM / RFU, DNAJB6 / Fold change vs veh, DNAJB6 / RFU, CACNA2D3 / Fold change vs veh, CACNA2D3 / RFU, DTX4 / Fold change vs veh, DTX4 / RFU, TFCP2 / Fold change vs veh, TFCP2 / RFU, GMCL1 /// GMCL1P1 / Fold change vs veh, GMCL1 /// GMCL1P1 / RFU, AEBP2 / Fold change vs veh, AEBP2 / RFU, SNHG1 /// SNORD22 /// SNORD25 /// SNORD26 /// SNORD27 /// SNORD28 /// SNORD29 /// SNORD31 / Fold change vs veh, SNHG1 /// SNORD22 /// SNORD25 /// SNORD26 /// SNORD27 /// SNORD28 /// SNORD29 /// SNORD31 / Fold change (Aza/veh), C12orf56 (ProbeSet 11735607_a_at) / Fold change (ACY-1035/veh), C12orf56 (ProbeSet 11735607_a_at) / Fold change (Aza/veh), FGFR1OP (ProbeSet 11751329_s_at) / Fold change (ACY-1035/veh), FGFR1OP (ProbeSet 11751329_s_at) / Fold change (Aza/veh), VPS36 (ProbeSet 11739960_a_at) / Fold change (ACY-1035/veh), VPS36 (ProbeSet 11739960_a_at) / RFU SYPL1 (11715823_x_at) / Fold change /veh SYPL1 (11715823_x_at) / RFU IGFBP7 (11715501_s_at) / Fold change /veh IGFBP7 (11715501_s_at) / RFU REEP3 (11722064_at) / Fold change /veh REEP3 (11722064_at) / RFU IGLL1 (11728026_x_at) / Fold change /veh IGLL1 (11728026_x_at): dose or concentration left out as unconfirmed
# Conditions: MV-4-11 cells, 48 hours
compound,measurement,value
Nc1ncn([C@@H]2O[C@H](CO)[C@@H](O)[C@H]2O)c(=O)n1 [azacitidine],Fold change /veh PODN (11730768_x_at),1.12
